According to paper PMC3923439, “Anti-inflammatory properties of a novel peptide interleukin 1 receptor antagonist” (Journal of Neuroinflammation, 2014):
Positions of bridges follow the written chain, without caps; N, C: chain ends. Chains are numbered I, II in the order given. No end group written: not given here.

Legend:
[1] = tested on: Aβ25–35-induced social memory deficit; format: in vivo; conditions: rat, Aβ25–35 15 μg i.c.v., Ilantide-t 10 mg/kg s.c., third trial
Protocol: Aggregates of Aβ25-35 (Bachem AG, Weil am Rhein, Germany) were prepared by incubating the peptides at a concentration of 3 μg/μl in sterile water for 4 days at 37°C. Subsequently, 5 μl of aggregated Aβ25-35 were injected intracerebroventricularly (1.2 μl/min) with a 10-μl Hamilton syringe using the following coordinates: 0.8 mm posterior to the bregma, 1.5 mm lateral to the sagittal suture and 3.8 mm beneath the surface of the brain. The procedure was performed while the animals were under anesthesia (i.p. fentanyl-fluanisone/midazolam at 0.3 ml/100-g animal; that is, 23.6 μg of fentanyl, 0.75 mg of fluanisone and 375 μg midazolam per 100-g animal). Social memory in animals reflects the ability of individuals to recognize conspecifics as familiar or unfamiliar. […] During each trial, the investigative behavior of the adult toward the juvenile (that is, licking, sniffing and chewing the fur of the juvenile) was monitored with a video camera and scored by an observer who was blinded to the treatment of the animals. […] The time spent investigating a novel juvenile (T3) was measured to confirm that the effect seen with the familiar juvenile was specific to cognition. In this case, RRnew was calculated as T3/(T1 + T3).

[2] = tested on: LPS-induced neuroinflammation; experiment: Lipopolysaccharide-induced impairment of social behavior; format: in vivo; conditions: rat
Protocol: The peripheral administration of LPS, the active fragment of bacterial endotoxin, results in an increase in the plasma levels of all proinflammatory cytokines and behavioral depression. LPS-induced behavioral depression was assessed by measuring the reduction of the duration of social interaction during 4-minute sessions. Six- to seven-week-old rats were handled for five days, habituated to the test cages and the experiment room and trained for social interaction with three-week-old juvenile rats introduced into the test cage for four minutes two days before the actual experiment. On the day of the experiment, the rats were intraperitoneally injected (i.p.) with saline or LPS (Escherichia coli 0111:B4; Sigma-Aldrich) dissolved in saline (250 μg/kg). Immediately after the i.p. injection, Ilantide-t (Ila; 10 mg/kg, equivalent to 2.1 μmol/kg), Ana ([…], equivalent to 5.8 μmol/kg) or saline was injected subcutaneously. The volume of all of the injections was 1.0 ml/kg. Six experimental groups were used: vehicle i.p./vehicle s.c. (veh/veh; n = 10), vehicle i.p./Ilantide-t s.c. (veh/Ila; n = 8), vehicle i.p./Ana s.c. (veh/Ana; n = 9), LPS i.p./vehicle s.c. (LPS/veh; n = 10), LPS i.p./Ilantide-t s.c. (LPS/Ila; n = 11) and LPS i.p./Ana s.c. (LPS/Ana; n = 11). The injections and weighing of the rats were performed immediately after the first test session (0 h), and the animals were tested and weighed again 2, 4, 6, 8, and 24 hours later. Different juvenile animals were presented on each occasion. Social interaction consisted of anogenital sniffing, licking and chewing the fur of the juveniles by the experimental animals and was monitored with a video camera. […] The duration of social interaction at each time point is expressed as the percentage of baseline values and was averaged for each experimental group. Social interaction was scored by an observer who was blinded to the treatment of the animals. For evaluation of levels of pro- and anti-inflammatory cytokines in blood, rats were injected with LPS and then immediately with either vehicle (n = 8) or Ilantide-t (n = 8) as described above. In addition, a control group of animals (n = 4) was treated with Ilantide-t alone (control). Blood samples were collected at 0, 2 and 6 hours after injections as described for the pharmacokinetics study and stored at -20°C until use. The levels of IL-6, IFN-γ and IL-10 were determined using corresponding rat ELISA kits according to the manufacturer’s protocols (all from BD Biosciences, San Diego, CA, USA).

ectodomain of IL-1RI = biological target: T1, ectodomain of IL-1RI (Homo sapiens, UniProt P14778); experiment: Surface plasmon resonance binding of immobilized ligand to recombinant IL-1RI ectodomain; conditions: SPR, Biacore 2000, ligand immobilized on CM4 chip, IL-1RI ectodomain injected, 25°C, pH 7.4
T1 construct: the recombinant ectodomain of IL-1RI (R&D Systems) was injected; purchased R&D Systems
T1 sequence (P14778 18-336 limits assumed): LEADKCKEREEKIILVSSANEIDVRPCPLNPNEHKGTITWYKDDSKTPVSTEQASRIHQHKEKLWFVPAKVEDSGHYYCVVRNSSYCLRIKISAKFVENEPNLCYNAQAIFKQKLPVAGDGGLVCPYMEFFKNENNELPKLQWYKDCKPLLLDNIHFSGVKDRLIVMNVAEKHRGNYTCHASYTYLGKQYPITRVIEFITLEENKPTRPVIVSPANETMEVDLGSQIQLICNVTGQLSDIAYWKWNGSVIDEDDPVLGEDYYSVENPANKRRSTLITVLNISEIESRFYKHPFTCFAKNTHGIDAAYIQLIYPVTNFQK
Protocol: The binding analysis was performed using a Biacore 2000 instrument (GE Healthcare Life Sciences) that contained 150 mM NaCl as running buffer at 25°C with 10 mM sodium phosphate (pH 7.4). The flow rate was 5 μl/min during immobilization. Ilantide peptide, IL-1β or IL-1Ra was immobilized on a CM4 sensor chip according to the manufacturer’s instructions, after which the recombinant ectodomain of IL-1RI (R&D Systems) was injected. The neural cell adhesion molecule (NCAM) immunoglobulin modules 1 and 2 (Ig1 and Ig2) were used as a negative control protein [9]. The data were analyzed using nonlinear curve-fitting with the manufacturer’s software.

I: SGRKSSKMQAKK-NH2 / II: SGRKSSKMQAK / III: SGRKSSKMQA / IV: SGRKSSKMQA (amide I:11-IV:C, I:12-II:C, II:11-III:C; C-terminus assumed) [Ilantide-t]
RRnew (recognition ratio with new juvenile) [1]: did not differ from 0.5 | IL-10 plasma levels ([2]; 2 hours after LPS administration, Ilantide-t 10 mg/kg s.c., ELISA, P < 0.01): increase in IL-10 plasma levels | Plasma levels of proinflammatory cytokines (IL-6 and IFN-γ) ([2]; 6 hours following LPS injection, Ilantide-t 10 mg/kg s.c., ELISA, tendency toward reduction): not statistically significant | Effect on LPS-induced body weight decrease ([2]; 24 hours after LPS 250 μg/kg i.p., Ilantide-t 10 mg/kg, Ana 100 mg/kg s.c., P < 0.05): attenuated the anorexigenic effect of LPS | Effect on LPS-induced depression of social activity (sickness behavior) ([2]; LPS 250 μg/kg i.p., Ilantide-t 10 mg/kg s.c., Ana 100 mg/kg s.c., 2 to 24 hours): attenuated social depression

IL-1Ra: recombinant interleukin 1 receptor antagonist purchased from R&D Systems
k d (ectodomain of IL-1RI): 3.62 ± 0.65 × 10^-3 s^-1
